Assay results published in patent US8617563B2, “Antichlamydial agents” (Duke University, priority 2011, dated 2013).
Where no end group is shown, it is not given here.

Legend:
[1] = system: Chlamydia-infected HeLa cells; assay: Apoptosis markers (AnnexinV staining, Caspase-3 cleavage) in infected HeLa cells; type: cell-based, C. trachomatis; settings: peptide 12.5 μM at 12 hpi
Description: FIG. 11 depicts (A) that inhibiting CPAF activity induces host cell death. The indicated peptides (anti-CPAF peptide refers to SEQ ID NO:7) were added to infected cells 12 hpi and the percentage of infected cells with condensed nuclei was quantified at the indicated times. (B-C) Inhibition of CPAF activity induces apoptosis. Infected cells were treated with peptides and the percentage of AnnexinV-FITC positive (propidium iodide (PI) negative) was determined by flow cytometry (B). In parallel samples, cleavage of Caspase-3, a hallmark of apoptosome activation, was monitored by immunoblot analysis. Actin and MOMP are host and bacterial loading controls respectively. […] Infected cells were treated as in (A) in the presence or absence of ZVAD-FMK, labeled with PI and analyzed by flow cytometry. […]
Subsequent experiments tested whether CPAF inhibition led to the onset of apoptosis in infected cells. […] Apoptotic cells were identified with an AnnexinV-FLOUS Staining Kit (available from Roche) and activation of Caspase-1 was determined by labeling active Caspase-1 with a Carboxyfluorescein FLICA Detection Kit (available from Immunochemistry) and analyzed in a FACScanner (available from BD Biosciences). […] Consistent with result, Caspase-3 cleavage, another characteristic of apoptotic cell death, was not detected (FIG. 11C).

[2] = system: mouse lung fibroblasts infected with C. trachomatis and C. muridarum; assay: Cell death in infected mouse lung fibroblasts from ICE−/− and ASC−/− knockout mice; type: cell-based; settings: knockout cells, unlike wild-type counterparts
Description: FIG. 12 depicts (A) low-magnification view of C. trachomatis LGV-L2 infected HeLa monolayers (30 h) treated with SEQ ID NO:7 or SEQ ID NO:11 peptides. (B) The frequency of condensed nuclei in treated cells is dependent on peptide concentration and Chlamydia infection. (C-D) Toxicity of CPAF inhibitors to Chlamydia-infected cells is observed in non-myeloid cells including human embryonic kidney cells HEK293 (C) and mouse embryo fibroblasts (D). […] (F-G) Cell death induced by anti-CPAF peptides requires Caspase-1 activation. HeLa cells infected with C. muridarum were treated with Ac-YVAD-CMK at 2 hpi, SEQ ID NO:7 peptide or SEQ ID NO:11 control peptide at 12 hpi and the percentage of infected cells with condensed nuclei was assessed at 48 hpi (F). […] The percentage of infected cells with condensed nuclei was assessed at 48 hpi (G). […] Cell death in infected and uninfected cells treated with CPAF inhibitory peptides or control peptides was determined by counting the number of condensed nuclei of ˜1000 cells.
FIG. 13 depicts (A) that Caspase-1 inhibitors block Chlamydia-mediated cell death. […] Cells were fixed and the percentage of cells with condensed nuclei determined at 24 hpi. […] Infected cells were labeled with a cell-permeable fluorescent substrate of Caspase-1 and treated with inhibitory peptides, and Caspase-1 activity was monitored by flow cytometry. […]

**Q.** Which results are given for “SLFYSPMVPHFWAELRNHYATSGLKRRRRRRRRR-NH2 [SEQ ID NO:7]”?
**A.** AnnexinV staining of infected cells [1]: did not stain for AnnexinV; Caspase-3 cleavage in infected cells ([1]; immunoblot): not detected; Host cell death in infected ICE−/− and ASC−/− mouse lung fibroblasts [2]: resistant to host cell death
